Publication PMC11345841, “Exploring 2-Sulfonylpyrimidine Warheads as Acrylamide Surrogates for Targeted Covalent Inhibition: A BTK Story” (Journal of Medicinal Chemistry, 2024)
Changes are numbered by the printed parent chain. Read-outs that look alike come from different tables or passages of the source.

Experiments:
Test in all cases: KINOMEscan ScanTK
Format in all cases: binding
[1] = biological target: T1, ABL1(F317L)-nonphosphorylated (Homo sapiens, UniProt P00519, F317L)
T1 construct: purchased Eurofins DiscoverX KINOMEscan (scanTK)

[2] = biological target: T2, CSF1R (Homo sapiens, UniProt P07333)
T2 construct: purchased Eurofins DiscoverX KINOMEscan (scanTK)

[3] = test system: EGFR(L747-T751del,Sins); conditions: for %Control / % difference (compound - Ib %Control): @1000nM
[4] = biological target: T3, FAK (Homo sapiens, UniProt Q05397)
T3 construct: purchased Eurofins DiscoverX KINOMEscan (scanTK)

[5] = biological target: T4, FGFR2 (Homo sapiens, UniProt P21802)
T4 construct: purchased Eurofins DiscoverX KINOMEscan (scanTK)

[6] = biological target: T5, FLT1 (Homo sapiens, UniProt P17948)
T5 construct: purchased Eurofins DiscoverX KINOMEscan (scanTK)

[7] = biological target: T6, FLT3(K663Q) (Homo sapiens, UniProt P36888, K663Q)
T6 construct: purchased Eurofins DiscoverX KINOMEscan (scanTK)
T6 sequence (P36888 27-993 K663Q): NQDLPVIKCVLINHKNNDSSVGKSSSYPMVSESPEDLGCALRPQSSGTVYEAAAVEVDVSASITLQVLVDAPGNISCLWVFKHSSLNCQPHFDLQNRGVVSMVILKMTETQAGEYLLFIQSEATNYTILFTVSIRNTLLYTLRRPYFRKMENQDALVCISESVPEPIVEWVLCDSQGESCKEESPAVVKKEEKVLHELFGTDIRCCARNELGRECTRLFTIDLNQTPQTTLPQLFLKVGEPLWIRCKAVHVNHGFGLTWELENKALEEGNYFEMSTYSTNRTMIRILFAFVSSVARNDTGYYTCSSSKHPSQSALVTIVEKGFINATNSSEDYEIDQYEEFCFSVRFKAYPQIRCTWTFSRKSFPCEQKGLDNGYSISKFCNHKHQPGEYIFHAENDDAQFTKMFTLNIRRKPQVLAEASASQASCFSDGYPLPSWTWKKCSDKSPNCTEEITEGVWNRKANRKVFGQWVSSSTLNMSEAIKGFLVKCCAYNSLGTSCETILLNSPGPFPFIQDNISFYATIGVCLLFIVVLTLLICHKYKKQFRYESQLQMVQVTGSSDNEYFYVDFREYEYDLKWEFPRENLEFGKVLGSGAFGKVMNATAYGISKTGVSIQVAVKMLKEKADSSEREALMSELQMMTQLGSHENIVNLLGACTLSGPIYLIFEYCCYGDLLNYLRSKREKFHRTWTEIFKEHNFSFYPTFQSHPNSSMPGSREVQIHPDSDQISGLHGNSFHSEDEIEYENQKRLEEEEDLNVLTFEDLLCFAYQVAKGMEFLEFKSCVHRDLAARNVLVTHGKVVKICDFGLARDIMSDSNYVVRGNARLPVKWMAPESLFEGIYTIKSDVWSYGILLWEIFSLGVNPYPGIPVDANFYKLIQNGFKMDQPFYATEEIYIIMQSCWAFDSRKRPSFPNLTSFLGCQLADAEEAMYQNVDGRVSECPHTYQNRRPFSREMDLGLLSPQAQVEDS

[8] = biological target: T7, KIT(V559D,T670I) (Homo sapiens, UniProt P10721, T670I/V559D)
T7 construct: purchased Eurofins DiscoverX KINOMEscan (scanTK)

[9] = biological target: T8, VEGFR2 (Homo sapiens, UniProt P35968)
T8 construct: purchased Eurofins DiscoverX KINOMEscan (scanTK)

[10] = biological target: T9, EGFR(E746-A750del) (Homo sapiens, UniProt P00533, DEL746-750)
T9 construct: purchased Eurofins DiscoverX KINOMEscan (scanTK)

[11] = biological target: T10, FLT3(D835V) (Homo sapiens, UniProt P36888, D835V)
T10 construct: purchased Eurofins DiscoverX KINOMEscan (scanTK)
T10 sequence (P36888 27-993 D835V): T6 sequence (P36888 27-993 K663Q) with Q637K, D809V

T2 sequence (P07333 20-972): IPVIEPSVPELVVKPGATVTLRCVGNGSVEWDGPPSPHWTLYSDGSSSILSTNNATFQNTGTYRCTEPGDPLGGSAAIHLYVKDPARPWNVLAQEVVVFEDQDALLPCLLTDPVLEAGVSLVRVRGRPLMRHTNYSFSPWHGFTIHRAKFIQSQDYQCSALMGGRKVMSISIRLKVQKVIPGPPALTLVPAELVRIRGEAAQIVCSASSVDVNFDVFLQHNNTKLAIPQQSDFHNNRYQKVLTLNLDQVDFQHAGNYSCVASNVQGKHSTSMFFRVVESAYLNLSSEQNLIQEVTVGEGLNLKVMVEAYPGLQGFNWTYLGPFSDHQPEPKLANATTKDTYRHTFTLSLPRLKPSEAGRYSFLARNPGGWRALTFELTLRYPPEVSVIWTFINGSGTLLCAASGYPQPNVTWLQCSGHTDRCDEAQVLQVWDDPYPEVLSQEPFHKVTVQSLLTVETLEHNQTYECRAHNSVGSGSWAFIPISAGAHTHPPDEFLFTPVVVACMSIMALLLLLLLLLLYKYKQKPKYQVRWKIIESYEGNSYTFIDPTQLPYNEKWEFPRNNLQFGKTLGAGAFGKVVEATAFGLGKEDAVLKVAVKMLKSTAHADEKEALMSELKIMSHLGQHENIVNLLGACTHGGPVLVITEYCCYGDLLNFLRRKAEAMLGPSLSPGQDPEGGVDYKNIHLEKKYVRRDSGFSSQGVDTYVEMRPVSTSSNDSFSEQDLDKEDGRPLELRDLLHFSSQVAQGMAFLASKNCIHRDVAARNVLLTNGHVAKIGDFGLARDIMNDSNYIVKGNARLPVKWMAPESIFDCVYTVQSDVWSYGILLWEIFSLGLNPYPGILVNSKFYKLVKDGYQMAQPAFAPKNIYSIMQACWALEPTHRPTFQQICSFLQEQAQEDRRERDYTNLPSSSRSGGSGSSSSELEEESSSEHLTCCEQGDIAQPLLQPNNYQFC
T5 sequence (P17948 27-1338): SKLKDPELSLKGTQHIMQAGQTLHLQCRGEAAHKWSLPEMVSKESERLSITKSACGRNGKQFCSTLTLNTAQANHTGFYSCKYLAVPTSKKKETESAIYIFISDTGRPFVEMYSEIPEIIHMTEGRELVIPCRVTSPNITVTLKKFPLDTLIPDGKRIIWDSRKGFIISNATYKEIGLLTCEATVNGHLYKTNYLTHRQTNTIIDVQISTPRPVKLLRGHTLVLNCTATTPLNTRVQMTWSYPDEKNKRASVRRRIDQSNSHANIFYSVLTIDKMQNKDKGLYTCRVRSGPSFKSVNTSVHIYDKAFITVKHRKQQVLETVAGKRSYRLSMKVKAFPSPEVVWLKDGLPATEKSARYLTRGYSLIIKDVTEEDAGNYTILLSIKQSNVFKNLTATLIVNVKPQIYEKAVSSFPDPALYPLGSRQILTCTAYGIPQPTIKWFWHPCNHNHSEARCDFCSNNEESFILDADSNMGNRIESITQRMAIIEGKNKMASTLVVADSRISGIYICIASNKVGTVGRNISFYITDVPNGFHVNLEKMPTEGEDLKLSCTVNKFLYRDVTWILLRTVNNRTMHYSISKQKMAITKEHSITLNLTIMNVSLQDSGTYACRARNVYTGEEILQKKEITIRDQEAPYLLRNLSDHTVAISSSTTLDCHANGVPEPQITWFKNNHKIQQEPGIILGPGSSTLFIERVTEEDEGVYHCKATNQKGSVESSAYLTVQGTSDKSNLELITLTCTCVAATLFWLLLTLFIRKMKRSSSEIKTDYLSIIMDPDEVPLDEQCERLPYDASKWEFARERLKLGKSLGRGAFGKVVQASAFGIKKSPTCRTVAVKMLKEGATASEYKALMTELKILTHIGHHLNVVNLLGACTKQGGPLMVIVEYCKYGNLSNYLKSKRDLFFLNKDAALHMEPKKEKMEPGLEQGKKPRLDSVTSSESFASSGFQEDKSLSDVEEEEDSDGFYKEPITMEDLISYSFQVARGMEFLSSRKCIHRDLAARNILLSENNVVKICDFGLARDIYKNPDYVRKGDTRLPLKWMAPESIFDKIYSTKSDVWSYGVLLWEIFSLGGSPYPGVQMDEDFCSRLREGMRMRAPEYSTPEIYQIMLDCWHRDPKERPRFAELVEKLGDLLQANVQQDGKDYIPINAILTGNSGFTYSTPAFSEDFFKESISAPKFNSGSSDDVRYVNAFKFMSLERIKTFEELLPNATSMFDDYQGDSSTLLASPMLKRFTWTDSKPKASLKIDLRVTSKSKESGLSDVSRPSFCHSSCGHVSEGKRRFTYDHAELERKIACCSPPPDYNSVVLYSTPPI
T3 sequence (Q05397 whole entry): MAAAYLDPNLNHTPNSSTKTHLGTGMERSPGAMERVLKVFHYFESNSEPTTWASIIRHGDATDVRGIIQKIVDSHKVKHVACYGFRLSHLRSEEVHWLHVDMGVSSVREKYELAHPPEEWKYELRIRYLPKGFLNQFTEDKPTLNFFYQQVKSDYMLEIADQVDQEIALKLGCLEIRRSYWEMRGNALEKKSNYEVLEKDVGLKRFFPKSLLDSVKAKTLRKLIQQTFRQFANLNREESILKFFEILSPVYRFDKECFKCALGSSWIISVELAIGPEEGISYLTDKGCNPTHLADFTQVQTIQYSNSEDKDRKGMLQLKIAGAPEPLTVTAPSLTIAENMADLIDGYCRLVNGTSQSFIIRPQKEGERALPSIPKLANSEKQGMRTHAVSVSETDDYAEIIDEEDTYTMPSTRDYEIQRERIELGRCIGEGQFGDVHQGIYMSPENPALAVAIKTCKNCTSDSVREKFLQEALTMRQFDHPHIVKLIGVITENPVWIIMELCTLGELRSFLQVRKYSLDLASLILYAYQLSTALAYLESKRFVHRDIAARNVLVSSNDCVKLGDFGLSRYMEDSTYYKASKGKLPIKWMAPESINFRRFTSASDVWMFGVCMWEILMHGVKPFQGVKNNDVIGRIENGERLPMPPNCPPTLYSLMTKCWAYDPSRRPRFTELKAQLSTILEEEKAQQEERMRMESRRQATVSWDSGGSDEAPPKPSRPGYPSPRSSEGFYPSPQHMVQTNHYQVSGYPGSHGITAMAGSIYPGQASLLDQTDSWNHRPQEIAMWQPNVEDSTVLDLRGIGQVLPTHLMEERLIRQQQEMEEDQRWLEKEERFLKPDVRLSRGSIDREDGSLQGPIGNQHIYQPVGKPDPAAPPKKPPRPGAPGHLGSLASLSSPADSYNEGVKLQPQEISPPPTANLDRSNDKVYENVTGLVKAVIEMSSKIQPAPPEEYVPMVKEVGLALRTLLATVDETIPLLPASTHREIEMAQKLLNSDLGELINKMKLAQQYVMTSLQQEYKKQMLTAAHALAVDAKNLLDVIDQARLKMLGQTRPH
T9 sequence (P00533 with tags, fused parts or gaps DEL746-750 limits assumed): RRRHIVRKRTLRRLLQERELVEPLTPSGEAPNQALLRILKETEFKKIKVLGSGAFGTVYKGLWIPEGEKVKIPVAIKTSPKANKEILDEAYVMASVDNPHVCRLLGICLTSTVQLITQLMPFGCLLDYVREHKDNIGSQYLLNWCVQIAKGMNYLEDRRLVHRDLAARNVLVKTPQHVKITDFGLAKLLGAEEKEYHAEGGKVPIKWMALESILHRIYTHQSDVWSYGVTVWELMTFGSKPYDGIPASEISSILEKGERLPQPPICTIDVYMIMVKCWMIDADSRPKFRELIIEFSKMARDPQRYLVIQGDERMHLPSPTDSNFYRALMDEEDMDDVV
T4 sequence (P21802 22-821): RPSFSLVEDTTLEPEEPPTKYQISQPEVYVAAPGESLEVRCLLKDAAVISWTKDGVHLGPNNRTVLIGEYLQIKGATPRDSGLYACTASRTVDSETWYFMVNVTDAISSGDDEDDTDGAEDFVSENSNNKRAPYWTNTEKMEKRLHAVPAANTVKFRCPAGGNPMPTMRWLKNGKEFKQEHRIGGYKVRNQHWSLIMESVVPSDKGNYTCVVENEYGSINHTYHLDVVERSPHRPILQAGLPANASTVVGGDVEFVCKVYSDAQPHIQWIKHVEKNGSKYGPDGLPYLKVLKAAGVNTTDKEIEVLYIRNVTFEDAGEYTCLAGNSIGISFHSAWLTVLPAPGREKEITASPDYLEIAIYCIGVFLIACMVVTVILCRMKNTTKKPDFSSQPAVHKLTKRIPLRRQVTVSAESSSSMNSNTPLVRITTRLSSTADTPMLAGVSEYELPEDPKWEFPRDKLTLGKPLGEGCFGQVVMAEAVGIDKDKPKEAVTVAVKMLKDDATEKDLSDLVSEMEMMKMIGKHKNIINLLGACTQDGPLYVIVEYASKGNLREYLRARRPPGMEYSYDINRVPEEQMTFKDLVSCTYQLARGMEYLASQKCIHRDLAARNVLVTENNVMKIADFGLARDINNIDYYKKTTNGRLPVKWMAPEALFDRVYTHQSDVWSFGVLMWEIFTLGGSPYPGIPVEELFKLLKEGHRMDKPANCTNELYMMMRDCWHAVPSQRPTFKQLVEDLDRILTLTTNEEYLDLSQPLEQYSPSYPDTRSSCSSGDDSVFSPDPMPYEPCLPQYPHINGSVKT

Row | remaining binding at 1 µM ([1]; @1000nM, read-out: %Control) | remaining binding at 1 µM ([1]; read-out: %Control @1000nM) | remaining binding at 1 µM ([2]; @1000nM, read-out: %Control) | remaining binding at 1 µM ([2]; read-out: %Control @1000nM) | remaining binding at 1 µM ([4]; @1000nM, read-out: %Control) | remaining binding at 1 µM ([4]; read-out: %Control @1000nM) | remaining binding at 1 µM ([5]; @1000nM, read-out: %Control) | remaining binding at 1 µM ([5]; read-out: %Control @1000nM) | remaining binding at 1 µM ([6]; @1000nM, read-out: %Control) | remaining binding at 1 µM ([6]; read-out: %Control @1000nM) | remaining binding at 1 µM ([7]; @1000nM, read-out: %Control) | remaining binding at 1 µM ([7]; read-out: %Control @1000nM) | remaining binding at 1 µM ([8]; @1000nM, read-out: %Control) | remaining binding at 1 µM ([8]; read-out: %Control @1000nM) | remaining binding at 1 µM ([9]; @1000nM, read-out: %Control) | remaining binding at 1 µM ([9]; read-out: %Control @1000nM) | difference in % of control binding versus compound Ib at 1 µM ([1]; @1000nM) | difference in %Control versus compound Ib at 1 µM ([2]; @1000nM) | Structure (SMILES) | %Control @1000nM [3] | %Control [3] | further results
1 | 76% | 76% | 92% | 92% | 99% | 99% | 85% | 85% | 93% | 93% | 58% | 58% | 68% | 68% | 90% | 90% | 44% | 12% | Cc1cnc(S(C)(=O)=O)nc1N1CCCC(n2nc(-c3ccc(Oc4ccccc4)cc3)c3c(N)ncnc32)C1 (stereo not drawn) [Compound 8a, 1-(1-(5-Methyl-2-(methylsulfonyl)pyrimidin-4-yl)piperidin-3-yl)-3-(4-phenoxyphenyl)-1H-pyrazolo[3,4-d]pyrimidin-4-amine] | 70% | 70% | difference in %Control from reference compound Ib at 1 µM ([10]; @1000nM): 88%; remaining binding at 1 µM ([10]; @1000nM, read-out: %Control): 99%; remaining binding at 1 µM ([10]; read-out: %Control @1000nM): 99%; % difference (compound - Ib %Control) [3]: 67.4%; difference in %Control versus compound Ib at 1 µM ([4]; @1000nM): -1%; difference in %Control vs compound Ib at 1 µM ([5]; @1000nM): 46%; difference in %Control from compound Ib at 1 µM ([6]; @1000nM): 21%; difference in %Control versus compound Ib at 1 µM ([11]; @1000nM): 20.1%; remaining binding at 1 µM ([11]; @1000nM, read-out: %Control): 30%; remaining binding at 1 µM ([11]; read-out: %Control @1000nM): 30%; difference in %Control from compound Ib at 1 µM ([7]; @1000nM): 14%; difference in %Control versus compound Ib at 1 µM ([8]; @1000nM): 0%
2 | 70% | 70% | 92% | 92% | 100% | 100% | 86% | 86% | 98% | 98% | 73% | 73% | 92% | 92% | 90% | 90% | 38% | 12% | COC(=O)c1cnc(S(C)(=O)=O)nc1N1CCCC(n2nc(-c3ccc(Oc4ccccc4)cc3)c3c(N)ncnc32)C1 (stereo not drawn) [Compound 8b, Methyl 4-(3-(4-Amino-3-(4-phenoxyphenyl)-1H-pyrazolo[3,4-d]pyrimidin-1-yl)piperidin-1-yl)-2-(methylsulfonyl)pyrimidine-5-carboxylate] | 65% | 65% | difference in %Control from reference compound Ib at 1 µM ([10]; @1000nM): 73%; remaining binding at 1 µM ([10]; @1000nM, read-out: %Control): 84%; remaining binding at 1 µM ([10]; read-out: %Control @1000nM): 84%; % difference (compound - Ib %Control) [3]: 62.4%; difference in %Control versus compound Ib at 1 µM ([4]; @1000nM): 0%; difference in %Control vs compound Ib at 1 µM ([5]; @1000nM): 47%; difference in %Control from compound Ib at 1 µM ([6]; @1000nM): 26%; difference in %Control versus compound Ib at 1 µM ([11]; @1000nM): 38.1%; remaining binding at 1 µM ([11]; @1000nM, read-out: %Control): 48%; remaining binding at 1 µM ([11]; read-out: %Control @1000nM): 48%; difference in %Control from compound Ib at 1 µM ([7]; @1000nM): 29%; difference in %Control versus compound Ib at 1 µM ([8]; @1000nM): 24%
3 | 90% | 90% | 96% | 96% | 96% | 96% | 80% | 80% | 100% | 100% | 100% | 100% | 34% | 34% | 94% | 94% | 58% | 16% | CCOC(=O)c1cnc(S(C)(=O)=O)nc1N1CCC[C@@H](n2nc(-c3ccc(Oc4ccccc4)cc3)c3c(N)ncnc32)C1 [Compound 8c, Ethyl (R)-4-(3-(4-Amino-3-(4-phenoxyphenyl)-1H-pyrazolo[3,4-d]pyrimidin-1-yl)piperidin-1-yl)-2-(methylsulfonyl)pyrimidine-5-carboxylate] | 74% | 74% | difference in %Control from reference compound Ib at 1 µM ([10]; @1000nM): 89%; remaining binding at 1 µM ([10]; @1000nM, read-out: %Control): 100%; remaining binding at 1 µM ([10]; read-out: %Control @1000nM): 100%; % difference (compound - Ib %Control) [3]: 71.4%; difference in %Control versus compound Ib at 1 µM ([4]; @1000nM): -4%; difference in %Control vs compound Ib at 1 µM ([5]; @1000nM): 41%; difference in %Control from compound Ib at 1 µM ([6]; @1000nM): 28%; difference in %Control versus compound Ib at 1 µM ([11]; @1000nM): 46.1%; remaining binding at 1 µM ([11]; @1000nM, read-out: %Control): 56%; remaining binding at 1 µM ([11]; read-out: %Control @1000nM): 56%; difference in %Control from compound Ib at 1 µM ([7]; @1000nM): 56%; difference in %Control versus compound Ib at 1 µM ([8]; @1000nM): -34%

Row | Structure (SMILES) | remaining binding at 1 µM ([1]; @1000nM, read-out: %Control) | remaining binding at 1 µM ([1]; read-out: %Control @1000nM) | remaining binding at 1 µM ([2]; @1000nM, read-out: %Control) | remaining binding at 1 µM ([2]; read-out: %Control @1000nM) | remaining binding at 1 µM ([4]; @1000nM, read-out: %Control) | remaining binding at 1 µM ([4]; read-out: %Control @1000nM) | remaining binding at 1 µM ([5]; @1000nM, read-out: %Control) | remaining binding at 1 µM ([5]; read-out: %Control @1000nM) | remaining binding at 1 µM ([6]; @1000nM, read-out: %Control) | remaining binding at 1 µM ([6]; read-out: %Control @1000nM) | remaining binding at 1 µM ([7]; @1000nM, read-out: %Control) | remaining binding at 1 µM ([7]; read-out: %Control @1000nM) | remaining binding at 1 µM ([8]; @1000nM, read-out: %Control) | remaining binding at 1 µM ([8]; read-out: %Control @1000nM) | remaining binding at 1 µM ([9]; @1000nM, read-out: %Control) | remaining binding at 1 µM ([9]; read-out: %Control @1000nM) | difference in % of control binding versus compound Ib at 1 µM ([1]; @1000nM) | difference in %Control versus compound Ib at 1 µM ([2]; @1000nM) | %Control @1000nM [3] | %Control [3] | further results
4 | C=CC(=O)N1CCC[C@@H](n2nc(-c3ccc(Oc4ccccc4)cc3)c3c(N)ncnc32)C1 [Compound 1g, Ibrutinib, reference compound] | 32% | 32% | 80% | 80% | 100% | 100% | 39% | 39% | 72% | 72% | 44% | 44% | 68% | 68% | 71% | 71% | – | – | 2.6% | 2.6% | –
